According to patent publication US8592572B2, “Liposome containing shRNA molecule targeting a thymidylate synthase and use thereof” (Delta-Fly Pharma, Inc., priority 2011, dated 2013):

How the values were obtained:
MSTO 211H tumor = test: Antitumor effects of PEG-modified lipoplex upon systemic administration to MSTO 211H cancer-bearing mouse; assay type: in vivo, BALB/c nu/nu male mice; conditions: MSTO 211H tumor-bearing mice; day 21 from beginning of administration; lipoplex 40 μg shRNA i.v. 6 times; pemetrexed 100 mg/kg i.p. 6 times
Procedure: BALB/c nu/nu male mice were subcutaneously inoculated with a MSTO 211H cell suspension (5×10^6 cells/100 μL). On day 14 from tumor cell inoculation, mice with tumor volumes of 50-100 mm^3 were subjected to an in vivo experiment.
The PEG-modified lipoplex prepared in Example 5 was administered via the mouse caudal vein to the MSTO 211H tumor bearing mice at a dose of 40 μg/200 μL (in terms of the shRNA amount) at 1-day intervals for 6 times in total starting on day 14 after tumor transplantation.
When the existing chemotherapeutic agent, pemetrexed sodium hydrate (Alimta (registered trademark) (Eli Lilly Japan K.K.)), was used in combination with the lipoplex, the agent was intraperitoneally administered 6 times in total (day 1, 2, 3, 8, 9 and 10) with 100 mg/kg starting on day 14 after tumor transplantation.
Carcinostatic activity was determined with tumor growth inhibition rate (TGI) (%) at day 21 from beginning of the administration. The TGI (%) was calculated in the same manner as described in the Example 6.

DLD-1 cells = test: Cancer cell proliferation inhibitory effects of siRNA and shRNA, MTT, DLD-1; assay type: cell-based, human; conditions: 5 nM siRNA/shRNA, in the presence of 5-FU 0.1 μg/mL
Procedure: (§1) In this Example, experimentation was performed on a 96-well plate scale. A lipoplex obtained as in the case of Example 2 was directly added to wells containing OptiMEM to adjust the total volume to 50 μl per well. Next, a DLD-1 or DLD-1/FU cell (human colonic intestinal adenocarcinoma cell) suspension (2,000 cells/100 μl) was added to the wells to which the lipoplex had been added (final total volume: 150 μl), followed by transfection. Here, the final concentration of shRNA or siRNA per well was 5 nM.
(§2) The medium was removed from each well 24 hours after the initiation of transfection. A fresh medium containing or not containing an existing chemotherapeutic agent, 5-FU, was added thereto (200 μl per well). Here, 5-FU was added to DLD-1 so as to result in a concentration of 0.1 μg/mL. 5-FU was added to DLD-1/FU so as to result in a concentration of 10 μg/mL. The medium was removed 0, 24, 48, 72, or 96 hours after the addition of the fresh medium. […] Also, the 0.5% MTT solution was added to cell-free wells to obtain a background absorbance.
(§3) After the completion of incubation, acidic isopropanol (150 μl) was added to each well. […] Absorbance was determined at a wavelength of 570 nm using a plate reader. Then, the cell proliferation rate was calculated. […]

[1] = system: thymidylate synthase (TS); test: siRNA and shRNA-induced TS expression inhibition (transfection with Lf RNAi MAX, Western blotting); assay type: cell-based, human; conditions: 1, 5 or 10 nM, 72 hours after transfection
Procedure: Lipofectamine™ RNAi MAX (hereafter referred to as “Lf RNAi MAX”), which is a cationic liposome, was used as a transfection reagent.
shRNA or siRNA prepared in Example 1 and Lf RNAi MAX were separately diluted with OptiMEM. The resulting solutions were mixed at a ratio of shRNA or siRNA to Lf RNAi MAX of 100 (pmol): 5 (μL). Here, equivalent amounts of the shRNA or siRNA solution and the Lf RNAi MAX solution were used. The obtained liquid mixture was left at room temperature for 10 to 20 minutes, resulting in complex (lipoplex) formation.
Each lipoplex was directly added to a 10-cm dish containing OptiMEM to adjust the total volume to 5 ml. Next, DLD-1 or DLD-1/FU cell suspension (10 ml) was seeded on the dish (500,000 cells/dish) so as to result in a final total volume of 15 ml, followed by transfection. Here, the final concentration of shRNA or siRNA was adjusted to 1, 5, or 10 nM. After the initiation of transfection, culture was carried out in a medium at 37° C. under 5% CO2 for 72 hours. […]
For detection of TS and β-actin, overnight reaction was carried out at 4° C. using the following primary antibodies each diluted with Tween buffer: a mouse monoclonal anti-human TS antibody (1:1000) (ANASPEC, Inc., CA, USA); and a mouse monoclonal anti-human β-actin antibody (1:500) (Bio Vision, Inc., CA, USA). […] The band of each protein of interest was detected on X-ray film.

MSTO 211H cells = test: Human plura malignant mesothelioma cell proliferation inhibitory effects of shRNA, MTT; assay type: cell-based; conditions: 5 or 10 nM shRNA, in the presence of pemetrexed sodium hydrate 10 ng/mL
Procedure: The experiment was carried out according to the method described in Example 3, except for using human plura malignant mesothelioma cell line (MSTO 211H) instead of human colorectal carcinoma cell line (DLD-1 or DLD-1/FU) and using pemetrexed sodium hydrate (Alimta (registered trademark) (Eli Lilly Japan K.K.)) instead of 5-FU as an existing chemotherapeutic agent. In the transfection, the final concentration of shRNA per well was either 5 or 10 nM. Pemetrexed sodium hydrate was added to a fresh medium at 10 ng/mL
Cell proliferation rate (%) was calculated in the same manner as described in the Example 3. FIG. 6 show the results.

DLD-1/FU cells = test: Cancer cell proliferation inhibitory effects of siRNA and shRNA, MTT, DLD-1/FU; assay type: cell-based, human; conditions: 5 nM siRNA/shRNA, in the presence of 5-FU 10 μg/mL
Procedure: as §1, §2, §3

Nc1nc2[nH]cc(CCc3ccc(C(=O)N[C@@H](CCC(=O)O)C(=O)O)cc3)c2c(=O)[nH]1 [pemetrexed sodium hydrate]
tumor growth inhibitory effects (TGI) (MSTO 211H tumor): approximately 28%

shTS: shRNA targeting TS, SEQ ID NO: 8, 5′-GUAACACCAUCGAUCAUGAUAGUGCUCCUGGUUGUCAUGAUCGAUGGUGUUACUU-3′, with two-uracil 3′ overhang (short hairpin RNA, chemistry not given here, further chemistry not given here)
inhibition of cell proliferation (DLD-1 cells): significantly inhibited proliferation | TS expression inhibition ([1]; DLD-1/FU cells): significantly inhibit TS expression | TS expression inhibition ([1]; DLD-1 cells): significantly inhibit TS expression | inhibition of cell proliferation (MSTO 211H cells): significantly inhibited proliferation | inhibition of cell proliferation (DLD-1/FU cells): significantly inhibited proliferation
